Our source for the IC50 values is ChEMBL document CHEMBL1201862, “PubChem BioAssay data set” (2004).

Molecules are shown by their SMILES. Calls of active or inactive are those of the source. Cut-off read from the data, not from the text of the source: actives have a measured IC50 and inactives only a lower limit.

For the assay, the target named is Envelope glycoprotein gp160 (Human immunodeficiency virus 1, UniProt Q6QLK5). The experiment in a line: cell-free HIV fusion peptide-binding blockers – biochemical, uHTS, fluorescence dequenching, […] (AID 1986).
Chain of Envelope glycoprotein gp160 (Q6QLK5 whole entry, the tested form may be a part): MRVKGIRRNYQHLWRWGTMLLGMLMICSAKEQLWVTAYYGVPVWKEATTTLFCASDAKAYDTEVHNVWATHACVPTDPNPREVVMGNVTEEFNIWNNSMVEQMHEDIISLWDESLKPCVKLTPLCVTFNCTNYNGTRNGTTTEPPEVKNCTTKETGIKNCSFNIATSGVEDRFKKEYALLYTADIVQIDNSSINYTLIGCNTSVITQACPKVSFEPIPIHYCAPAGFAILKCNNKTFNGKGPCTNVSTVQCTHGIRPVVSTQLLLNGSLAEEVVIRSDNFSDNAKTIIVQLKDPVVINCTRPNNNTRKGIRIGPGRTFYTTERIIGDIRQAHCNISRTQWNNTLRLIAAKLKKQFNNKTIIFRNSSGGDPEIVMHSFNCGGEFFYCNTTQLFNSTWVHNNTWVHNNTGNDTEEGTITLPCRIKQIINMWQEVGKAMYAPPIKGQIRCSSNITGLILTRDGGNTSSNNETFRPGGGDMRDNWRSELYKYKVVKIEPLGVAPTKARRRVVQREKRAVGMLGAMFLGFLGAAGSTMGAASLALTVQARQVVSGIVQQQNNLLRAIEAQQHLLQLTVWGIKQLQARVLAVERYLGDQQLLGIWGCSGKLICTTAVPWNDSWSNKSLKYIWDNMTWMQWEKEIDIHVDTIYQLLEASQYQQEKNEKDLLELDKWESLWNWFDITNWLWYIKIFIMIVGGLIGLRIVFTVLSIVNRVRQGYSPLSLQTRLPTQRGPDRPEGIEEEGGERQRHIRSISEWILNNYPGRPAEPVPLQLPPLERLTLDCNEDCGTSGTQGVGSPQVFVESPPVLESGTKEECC
Regarding `O=C(O)C1Nc2c(cccc2C(F)(F)F)C2C=CCC12` (stereo not given), the 50% inhibitory concentration (IC50) (in general, the point on the concentration scale where inhibition reaches its midpoint) is 12.7 µM (active). The result for `O=C(O)c1[nH]c2ccccc2c1C(c1cc(Cl)cc([N+](=O)[O-])c1O)c1c(C(=O)O)[nH]c2ccccc12` reads 2.55 µM (active). The result for `CCC(Sc1nc2ccsc2c(=O)n1Cc1ccc(C(=O)O)cc1)C(=O)Nc1ccc(C)c(Cl)c1` (stereo not given) reads 20 µM (active); that for `COc1cc(/C=N/NS(=O)(=O)c2ccc3ccccc3c2)ccc1OCc1ccc(C(=O)O)cc1`, 27 µM (active).

For `COc1cc(/C=N/NC(=O)C(Cc2c[nH]c3ccccc23)NC(=O)OCc2ccccc2)cc([N+](=O)[O-])c1O` (stereo not given), the IC50 was 17.2 µM (active).
